Reference: paper PMC6707612, “Cyclic-di-GMP binds to histidine kinase RavS to control RavS-RavR phosphotransfer and regulates the bacterial lifestyle transition between virulence and swimming” (PLoS Pathogens, 2019)
Where “and” joins values, the source holds several entries; their conditions need not be identical. Identical values can stand only once.

Assays:
STING = target: STING; parameters: method as in PMID 26055114; conditions: upper end of reported range; cited from earlier work
RavR^ΔEAL = target: T1, RavR^ΔEAL (Xanthomonas campestris pv. campestris, UniProt Q8P9A7); assay: microscale thermophoresis (MST) binding; conditions: 20 nM fluorescein-labelled nucleotide, read-out: dissociation constant (Kd)
T1 sequence (Q8P9A7 with tags, fused parts or gaps): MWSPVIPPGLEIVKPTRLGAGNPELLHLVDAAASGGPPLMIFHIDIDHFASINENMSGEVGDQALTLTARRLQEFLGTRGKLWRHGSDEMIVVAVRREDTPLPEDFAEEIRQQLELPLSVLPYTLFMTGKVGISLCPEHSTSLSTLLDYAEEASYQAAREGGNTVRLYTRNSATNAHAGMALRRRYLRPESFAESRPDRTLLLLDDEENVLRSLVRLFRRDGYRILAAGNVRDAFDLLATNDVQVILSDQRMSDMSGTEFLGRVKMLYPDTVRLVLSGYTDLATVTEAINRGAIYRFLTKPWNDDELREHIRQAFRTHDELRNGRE

DHp domain of RavS = assay: microscale thermophoresis (MST) binding; parameters: species or system Xanthomonas campestris pv. campestris; conditions: DHp region
Description: (§1) Fig 6 Arg^656 in the CA domain of RavS is a key residue for c-di-GMP binding. (a, b) c-di-GMP binds to the DHp-CA domain of RavS. PAS-A, PAS-B and DHp-CA in (a), and DHp and CA domains of RavS in (b), were purified and the interaction with c-di-GMP was measured by MST. Each assay was repeated three times. Standard deviations are shown. (c) Molecular docking model of the interaction between c-di-GMP and DHp-CA of RavS. c-di-GMP is shown as a ball-and-stick model and DHp-CA is shown in ribbon representation. (d) Schematic view of the predicted docking site between c-di-GMP and DHp-CA. Potential hydrogen bonds are indicated as blue dashed lines. Autodock software was used to predict the interaction. (e) Effect of amino acid substitutions on RavS–c-di-GMP binding. Ten recombinant proteins of the DHp-CA region, each containing a substitution of a putative essential residue involved in c-di-GMP binding, were used in the MST assay to quantify the Kd value of RavS–c-di-GMP binding. fl-c-di-GMP was used in the MST assay. Each experiment was repeated three times. […] The reactions were terminated with 5× SDS loading buffer and the products were separated by 12% SDS-PAGE, exposed to a phosphor screen and analysed by Typhoon FLA7000. […]
(§2) The interaction between c-di-GMP nucleotides and various proteins was measured by using MST with a fluorescein-labelled c-di-GMP (2′-Fluo-AHC-c-di-GMP, abbreviated as fl-c-di-GMP; 2′-Fluo-AHC-c-di-AMP, fl-c-di-AMP; 2′-Fluo-AHC-cGMP, fl-cGMP; Biolog, Germany). These chemicals contain carboxyfluorescein that has excitation and emission wavelengths of 497 nm and 520 nm, respectively, which can be detected directly by a MST instrument. […] Fluorescence intensity due to thermophoresis was recorded using the blue channel optics of the instrument (λex = 470 ± 15 nm, λem = 520 ± 10 nm) during a 30 s period of infrared laser heating at 80% of the maximum laser power, followed by a 5 s cooling period. […]

PAS-A of RavS = assay: microscale thermophoresis (MST) binding; parameters: species or system Xanthomonas campestris pv. campestris; conditions: PAS-A region
Description: as §1, §2

PAS-B of RavS = assay: microscale thermophoresis (MST) binding; parameters: species or system Xanthomonas campestris pv. campestris; conditions: PAS-B region
Description: as §1, §2

Structure (SMILES) | Kd (STING) [µM] | Kd (RavR^ΔEAL) | binding (MST) (DHp domain of RavS) | binding (MST) (PAS-A of RavS) | binding (MST) (PAS-B of RavS)
Nc1nc2c(ncn2[C@@H]2O[C@@H]3COP(=O)(O)O[C@H]4[C@@H](O)[C@H](n5cnc6c(=O)[nH]c(N)nc65)O[C@@H]4COP(=O)(O)O[C@H]3[C@H]2O)c(=O)[nH]1 [c-di-GMP, Cyclic di-GMP] | 14.5 | – | – | – | –
Nc1nc2c(ncn2[C@@H]2O[C@@H]3COP(=O)(O)O[C@H]4[C@@H](OC(=O)NCCCCCCNC(=O)c5ccc6c(c5)C(=O)OC65c6ccc(O)cc6Oc6cc(O)ccc65)[C@H](n5cnc6c(=O)[nH]c(N)nc65)O[C@@H]4COP(=O)(O)O[C@H]3[C@H]2O)c(=O)[nH]1 [fl-c-di-GMP, 2′-Fluo-AHC-c-di-GMP] | – | 111 µM and > 80 µM | no binding | no binding | no binding
